Laboratory results reported in ChEMBL document CHEMBL1201862, “PubChem BioAssay data set” (2004).
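The compound was tested at five concentrations on cells cultured in 96-well plates, with a 48-hour exposure period. At the GI50, growth is halved.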 The source made the active and inactive calls. Cut-off read from the data, not from the text of the source: active = GI50 up to about 1.1 µM and inactive = higher.

Tests used:
Test in all cases: NCI tumour cell line growth inhibition, 48 h
SW-620 = tested on: SW-620
SR = tested on: SR
NCI-H460 = tested on: NCI-H460
UACC-257 = tested on: UACC-257
BT-549 = tested on: BT-549
TK-10 = tested on: TK-10
KM12 = tested on: KM12
OVCAR-5 = tested on: OVCAR-5
HOP-92 = tested on: HOP-92
SN12C = tested on: SN12C
CCRF-CEM = tested on: CCRF-CEM
HCC 2998 = tested on: HCC 2998
Malme-3M = tested on: Malme-3M
T47D = tested on: T47D
DU-145 = tested on: DU-145
K562 = tested on: K562
SK-MEL-5 = tested on: SK-MEL-5
IGROV-1 = tested on: IGROV-1
MDA-MB-435 = tested on: MDA-MB-435
SF-295 = tested on: SF-295

SMILES	GI50 (SW-620)	GI50 (SR)	GI50 (NCI-H460)	GI50 (UACC-257)	GI50 (BT-549)	GI50 (TK-10)	GI50 (KM12)	GI50 (OVCAR-5)	GI50 (HOP-92)	GI50 (SN12C)	GI50 (CCRF-CEM)	GI50 (HCC 2998)	GI50 (Malme-3M)	GI50 (T47D)	GI50 (DU-145)	GI50 (K562)	GI50 (SK-MEL-5)	GI50 (IGROV-1)	GI50 (MDA-MB-435)	GI50 (SF-295)
O=C1c2cc(Br)ccc2-c2ccc3c4ccc5c6c(ccc(c7ccc1c2c73)c64)C(=O)c1cc(Br)ccc1-5	> 100 µM (inactive)	2.28 µM (inactive)	> 100 µM (inactive)	> 100 µM (inactive)	> 100 µM (inactive)	> 100 µM (inactive)	> 100 µM (inactive)	> 100 µM (inactive)	> 100 µM (inactive)	> 100 µM (inactive)	0.787 µM (active)	> 100 µM (inactive)	> 100 µM (inactive)	> 100 µM (inactive)	> 100 µM (inactive)	> 100 µM (inactive)	> 100 µM (inactive)	> 100 µM (inactive)	> 100 µM (inactive)	
Cc1sc(/N=C/c2c[nH]c3ccccc23)c(C#N)c1C	39.7 µM (inactive)	18.2 µM (inactive)	33.1 µM (inactive)	44.6 µM (inactive)	42.1 µM (inactive)	20 µM (inactive)	13.7 µM (inactive)	> 100 µM (inactive)	45.7 µM (inactive)	74.3 µM (inactive)	15.3 µM (inactive)	14.9 µM (inactive)	25.9 µM (inactive)	18.6 µM (inactive)	55.6 µM (inactive)	16.3 µM (inactive)	18.4 µM (inactive)	21.7 µM (inactive)	32.3 µM (inactive)	28.3 µM (inactive)
CCOC(=O)/C=C(\C(=O)OCC)n1cnc2c(N)ncnc21	2.74 µM (inactive)	1.91 µM (inactive)	17.9 µM (inactive)	14.5 µM (inactive)	12.1 µM (inactive)	5.02 µM (inactive)	14.8 µM (inactive)	5.83 µM (inactive)	2.28 µM (inactive)	5.19 µM (inactive)	1.63 µM (inactive)	16 µM (inactive)	4.29 µM (inactive)	2.92 µM (inactive)	15.6 µM (inactive)	1.99 µM (inactive)	14.7 µM (inactive)	10.8 µM (inactive)	11.8 µM (inactive)	16.8 µM (inactive)
CC(C)[Si]1(C(C)C)OCC2OC(n3ccc(=O)[nH]c3=O)C([Se]c3ccccc3)C2O[Si](C(C)C)(C(C)C)O1 (stereo not drawn)	2.32 µM (inactive)	3.72 µM (inactive)	1.87 µM (inactive)	4.31 µM (inactive)	11.6 µM (inactive)	7.46 µM (inactive)	2.16 µM (inactive)	9.48 µM (inactive)	3.5 µM (inactive)	2.29 µM (inactive)	8.91 µM (inactive)	1.58 µM (inactive)	2.81 µM (inactive)	6.71 µM (inactive)	12.2 µM (inactive)		3.01 µM (inactive)	2.44 µM (inactive)	5.42 µM (inactive)	5.9 µM (inactive)
Oc1cc(Cl)cc2cc(Cl)cnc12	3.15 µM (inactive)	1.56 µM (inactive)	1.79 µM (inactive)	3.73 µM (inactive)	4.73 µM (inactive)	27.5 µM (inactive)	5.13 µM (inactive)	17.5 µM (inactive)	21.5 µM (inactive)	2.3 µM (inactive)	1.78 µM (inactive)	25.1 µM (inactive)	2.25 µM (inactive)	3.34 µM (inactive)	6.47 µM (inactive)	0.989 µM (active)	3.67 µM (inactive)	0.596 µM (active)	2.87 µM (inactive)	1.92 µM (inactive)
